The record followed here is patent US20210401867A1, “PHOTOSENSITIZERS AND METHOD OF TREATING CANCER USING THE SAME” (Cheng-Wen Wu, priority 2018, published 2021).

Series [1] has as its system FaDu cells. Nature of the series: colony forming assay of FaDu cells. The format is cell-based, human. On the procedure:
In the following examples, FaDu cells are used in cell viability tests and colony forming assays. FaDu cells (ATCC HTB-43) is a human head-and-neck cell line with squamous phenotype. FaDu cells used in the following examples are cultured in DMEM medium supplemented with 10% fetal bovine serum (FBS) and 1% penicillin/streptomycin, in a humidified incubator maintained at 37° C. and 5% CO2.
Referring to FIGS. 9A-C, an in vitro cell viability chart of FaDu cells when treated with BrdU alone, NR alone, and BrdU and NR, is provided in accordance with an exemplary embodiment of the present disclosure. NR treatments in FIGS. 9A, 9B, and 9C are similar with the experiment procedures for FIG. 6. In samples where FaDu cells are treated with BrdU and NR, FaDu cells are incubated with BrdU for 24 hours before irradiated with NR. Referring to FIG. 9B, a colony forming assay result of FaDu cells after the treatments described in […], is provided in accordance with an exemplary embodiment of the present disclosure. The colony forming assay in FIG. 9B are proceeded as following: FaDu cells treated by different regimens are grouped and seeded in 6-well-plates with 1000 cells in each of the well and cultured for 14 days; the culture medium was replaced every 3 to 4 days; in the end of the experiment, the cells are washed twice with PBS and fixed with 4% paraformaldehyde for 15 minutes and stained with 0.1% crystal violet. Referring to FIG. 9C, a quantitative result of the colony forming assay in FIG. 9B is provided in accordance with an exemplary embodiment of the present disclosure. In FIG. 9C, the results of the colony forming assay are quantified by microscopic examination by stereomicroscope.

Series [2] has as its system FaDu cells. Nature of the series: in vitro cell viability of FaDu cells. The format is cell-based, human. Conditions: for cytotoxicity: viability and colony forming.

Regarding dibromocurcumin [DBC], in the series with FaDu cells [1] (DBC combined with 1 Gy of 14 keV NR), the “colony forming assay versus DBC or NR alone” value is reported as “same result”. Also, the colony forming inhibition entry with FaDu cells [1] (FaDu cells, 40 μM DBC) is recorded as “about 50%”. For the same substance, the “cytotoxicity to FaDu cells” value in the series on FaDu cells [2] (20 μM of DBC combined with 1 Gy of NR) is listed as “significantly higher than using DBC or NR alone”. The “cytotoxicity of the combination with NR” value in the series on FaDu cells [2] (DBC and NR, FaDu cells) is “synergistic cytotoxicity”. Further, the results for the cytotoxicity entry in the series on FaDu cells [2] (DBC dosage less than 20 μM) and in the series with FaDu cells [2] (DBC dosage more than 120 μM) were “little cytotoxicity” and “efficiently kills FaDu cells”, respectively. For the same substance, the cell viability result in the series on FaDu cells [2] (FaDu cells, 80 μM DBC for 24 hours, Day 7) is listed as “less than 50%”.
